Test results reported in US20110281852A1 (priority 2010, published 2011).

Experiments:
[1] = test system: PPARγ; experiment: Immunoblot, PPARγ protein in HWP; assay type: cell-based, human; details: day 15
Description: (§1) Immunoblot Analysis: Protein expression of GATA-2, GATA-3, PPARγ and C/EBPα were assessed by Western Blot. Total proteins were isolated from HWP treated with compounds or vehicles on day 15. The cells were washed twice with PBS, lysed in a lysis buffer containing HEPES-Tx-PI buffer: […] HEPES, 5 mM EDTA, 350 mM Sucrose, 1 μg/ml leupeptin, 1 μg/ml pepstatin, 1% Triton-X, 1 mM PMSF), processed with a 25G needle and centrifuged at 10,000 rpm for 5 min. Protein concentration was determined using the Micro BCA Protein Assay Kit (Fisher Scientific, Pittsburgh, Pa., USA) according to the manufacturers instructions. 20 μg proteins were loaded and separated by electrophoresis using the BioRad Electrophoretic System (60 V for 1 hour followed by 90 V for 5 hours). The proteins were then transferred to nitrocellulose membranes at 35 V overnight. The membrane was blocked for 1 hour at room temperature in 5% nonfat milk in Tris-buffered saline (TBS), then washed with Tween-20-TBS (TTBS, 0.1% Tween-20) three times (15 min, 5 min, 5 min), followed by incubation with primary antibodies human GATA-2, GATA-3, PPARγ, C/EBPα and β-actin (dilution 1:200) (all antibodies were purchased from Santa Cruz Biotechnology, Santa Cruz, Calif., USA) at room temperature for 2 hours. […]

[2] = test system: GATA-2; experiment: Real-Time RT-PCR, GATA-2 mRNA in HWP; assay type: cell-based, human; details: day 15
From the text: (§2) Quantitative Real-Time RT-PCR: Real-Time reverse transcriptase polymerase chain reaction (RT-PCR) analysis was used to measure mRNA expression of human genes PPARγ, C/EBPα, GATA-2 and GATA-3 under the control of β-actin. Briefly, total RNA was isolated from HWP following treatment at days 15 with Trizol reagent (Invitrogen, Carlsbad, Calif., USA) according to the manufacturer's instruction. RNA was quantified using absorption of light at 260 and 280 nm, and sample integrity was checked by 1.5% agarose gel electrophoresis. 0.8 μg of total RNA from each sample was used for reverse transcription reaction using the TaqMan Reverse Transcription Reagents (Applied Biosystems, Foster City, Calif., USA) following the Manufacturer's instructions. PCR was done using the SYBR green Master Mix (Applied Biosystems, Foster City, Calif., USA) following the manufacturer's instructions. The temperature cycling conditions of amplification were as follows: an initial step of denaturation at 95° C. for 10 min, 40 cycles of denaturation at 95° C. for 30 s, annealing at 55° C. for 30 s, and elongation at 72° C. for 30 s. Real-Time RT-PCR was performed using Mx3000P Real-Time Thermocyclers (Statagene, La Jolla, Calif., USA). The relative mRNA levels of these genes were calculated by Pfaffl's mathematical method (Pfaffl, M W, Nucleic Acid Res (2001) 29:e45) and normalized with control-treated groups.

[3] = test system: GATA-3; experiment: Real-Time RT-PCR, GATA-3 mRNA in HWP; assay type: cell-based, human; details: day 15
From the text: as §2

[4] = test system: human white preadipocytes (HWP); experiment: Oil-Red-O staining and quantification, HWP differentiation; assay type: cell-based; details: 15 days post differentiation induction
Description: Cell culture: Cell culture was carried out following the protocol provided by Promocell Company. […] Differentiation was induced with preadipocyte Differentiation Medium (DM) for 3 days (days 3), where upon the medium was changed to adipocyte Nutrition Medium (NM) and cultured for 12 days (days 15) (HWP cell line and media were purchased from Promocell, Heidelberg, Germany).
Oil-Red-O Staining and quantification: Oil-Red-O Staining and quantitative Oil-Red-O Staining were performed as previously reported. Briefly, medium was removed and cells were washed with PBS twice, fixed with 3.7% formalin at room temperature for 30 min, then rinsed with water, added 60% 2-propanol and incubated for 5 minutes, then moved out 2-propanol and stained cells with Oil-Red-O solution (Oil-Red-O store solution (3 mg/ml in pure 2-propanol): water=3:2) at room temperature for 10 min. Then the Oil-Red-O solution was removed and cells were washed 3 times with water. Images were obtained using an Olympus IX70 inverted microscope equipped for phase-contrast microscopy (Olympus, Tokyo, Japan). After staining, the cells were washed twice with 70% ethanol to remove excess stain. Stained oil droplets in the cells were dissolved in 2-propanol containing 4% Nonidet-P40 (Fisher Scientific, Pittsburgh, Pa., USA) and OD values were measured at an absorbance of 490 nm.

[5] = test system: GATA-3; experiment: Immunoblot, GATA-3 protein in HWP; assay type: cell-based, human; details: day 15
Description: Immunoblot Analysis: Protein expression of GATA-2, GATA-3, PPARγ and C/EBPα were assessed by Western Blot. Total proteins were isolated from HWP treated with compounds or vehicles on day 15. The cells were washed twice with PBS, lysed in a lysis buffer containing HEPES-Tx-PI buffer: […] HEPES, 5 mM EDTA, 350 mM Sucrose, 1 μg/ml leupeptin, 1 μg/ml pepstatin, 1% Triton-X, 1 mM PMSF), processed with a 25G needle and centrifuged at 10,000 rpm for 5 min. Protein concentration was determined using the Micro BCA Protein Assay Kit (Fisher Scientific, Pittsburgh, Pa., USA) according to the manufacturers instructions. 20 μg proteins were loaded and separated by electrophoresis using the BioRad Electrophoretic System (60 V for 1 hour followed by 90 V for 5 hours). The proteins were then transferred to nitrocellulose membranes at 35 V overnight. The membrane was blocked for 1 hour at room temperature in 5% nonfat milk in Tris-buffered saline (TBS), then washed with Tween-20-TBS (TTBS, 0.1% Tween-20) three times (15 min, 5 min, 5 min), followed by incubation with primary antibodies human GATA-2, GATA-3, PPARγ, C/EBPα and β-actin (dilution 1:200) (all antibodies were purchased from Santa Cruz Biotechnology, Santa Cruz, Calif., USA) at room temperature for 2 hours. The membrane was rinsed three times (15 min, 5 min, 5 min), then incubated at room temperature for 1 hour with Horseradish peroxidase-conjugated second antibody (1:10,000). The membrane was then incubated in ECL reagent (GE Healthcare, Piscataway, N.J., USA) for 1 minute. Protein was visualized using the UVP image analysis system (UVP, Upland, Calif., USA).

[6] = test system: PPARγ; experiment: Real-Time RT-PCR, PPARγ mRNA in HWP; assay type: cell-based, human; details: day 15
From the text: as §2

[7] = test system: C/EBPα; experiment: Real-Time RT-PCR, C/EBPα mRNA in HWP; assay type: cell-based, human; details: day 15
From the text: as §2

[8] = test system: human white preadipocytes (HWP); experiment: MTT assay, viability of HWP during differentiation; assay type: cell-based; details: 15 days of differentiation
Description: Cell culture: Cell culture was carried out following the protocol provided by Promocell Company. Briefly, human white preadipocytes (HWP's […]) were cultured at 37° C. in a humidified 5% CO2 atmosphere and grown in a preadipocyte Growth medium (GM) with 100 units/ml penicillin and 100 μg/ml streptomycin until confluence (day 0). Differentiation was induced with preadipocyte Differentiation Medium (DM) for 3 days (days 3), where upon the medium was changed to adipocyte Nutrition Medium (NM) and cultured for 12 days (days 15) (HWP cell line and media were purchased from Promocell, Heidelberg, Germany).

[9] = test system: C/EBPα; experiment: Immunoblot, C/EBPα protein in HWP; assay type: cell-based, human; details: day 15
Description: as §1

Row | Compound | PPARγ protein expression, drug-treated vs control cells [1] | GATA-2 mRNA expression vs vehicle (control) group ([2]; 1 μM) [fold] | GATA-2 mRNA expression vs vehicle (control) group ([2]; 2 μM) [fold] | GATA-2 mRNA expression vs vehicle (control) group ([2]; 4 μM) [fold] | GATA-3 mRNA expression vs control group ([3]; 1 μM) [fold] | GATA-3 mRNA expression vs control group ([3]; 2 μM) [fold] | GATA-3 mRNA expression vs control group ([3]; 4 μM) [fold] | reduction in lipid content ([4]; 1 μM) [%] | reduction in lipid content ([4]; 2 μM) [%] | reduction in lipid content ([4]; 4 μM) [%] | reduction in lipid content ([4]; 8 μM) [%] | GATA-3 protein expression vs controls ([5]; 1 μM) [fold] | GATA-3 protein expression vs controls ([5]; 2 μM) [fold] | GATA-3 protein expression vs controls ([5]; 4 μM) [fold] | change in PPARγ mRNA expression [6] | change in C/EBPα mRNA expression [7] | decrease of cell viability vs control ([8]; 1 μM) [%] | decrease of cell viability vs control ([8]; 2 μM) [%] | decrease of cell viability vs control ([8]; 4 μM) [%] | decrease of cell viability vs control ([8]; 8 μM) [%] | also measured
1 | evodiamine | no significant difference | 1.36 | 1.5 | 2.08 | 2.61 | 2.7 | 2.79 | 27.8 | 46.7 | 84.6 | 112.6 | 4.21 | 4.95 | 6.57 | no significant changes | no significant changes | 17.7 | 30.5 | 34.2 | 53.6 | reduction in lipid content ([4]; 0.125 μM): 7.5%; reduction in lipid content ([4]; 0.25 μM): 13.8%; reduction in lipid content ([4]; 0.5 μM): 19%; decrease of cell viability vs control ([8]; 0.25 μM): 14.1%; decrease of cell viability vs control ([8]; 0.5 μM): 15%; C/EBPα protein expression, drug-treated vs control cells [9]: no significant difference
2 | COc1ccc2cc3[n+](cc2c1OC)CCc1cc2c(cc1-3)OCO2.[Cl-] [berberine, Berberine (Chloride Form)] | no significant difference | 3.87 | 4.1 | 3.8 | 2.77 | 2.79 | 4.43 | 31.9 | 42.9 | 60.6 | 66.4 | 5.63 | 5.65 | 6.43 | no significant changes | no significant changes | −3.1 | 1.1 | −0.0 | 1.3 | GATA-2 mRNA expression vs vehicle (control) group ([2]; 8 μM): 5.33 fold; GATA-3 mRNA expression vs control group ([3]; 8 μM): 6.77 fold; GATA-3 protein expression vs controls ([5]; 8 μM): 5.37 fold; C/EBPα protein expression, drug-treated vs control cells [9]: no significant difference
